Laboratory results taken from patent publication US20240208950A1, “COMPOSITIONS AND METHODS FOR TREATMENT OF CERVICAL AND OVARIAN CANCER” (SOUTH DAKOTA BOARD OF REGENTS, priority 2021, published 2024).

What was measured:
Type in all cases: cell-based, human
[1] = system: CaSki cells; test: Cell migration (agarose bead, scratch wound, Boyden chamber), CaSki; settings: 0 and 48 hours
Protocol: (§1) FIGS. 7B and 7D show the effect of ORM-Br on motility potential of CaSki cells (FIG. 7B) and SiHa cells (FIG. 7D) as predicted by agarose bead assay. The images shown in FIGS. 7A-7D represent the migratory cells (MC) in control and ORM-Br treated groups at 0 and 48 hours. In FIGS. 7B and 7D, AB means agarose beads. In FIGS. 7A-7D the images magnification were at 4.
(§2) Cell motility was performed by in vitro scratch wound assay. Briefly, cells were seeded in a 12-wells plate and after 80-90% confluency a standardized wound was made using a 200 μL micropipette tip. Cells were then treated with Br-ORM (10 μM) and photographed by phase contrast microscopy. […]
(§3) FIG. 14. […] Effect of Br-ORM on cell migration of cervical cancer cells as determined by agarose bead (FIG. 14A), scratch wound healing (FIG. 14B), and Boyden chamber assay (FIG. 14C). […] Closure of wound was determined and photographed using phase contrast microscopy. […] Bar graph represent the quantification of migrated CaSki cells of control and Br-ORM treated groups (FIG. 14C(ii)). […] Effect of Br-ORM treatment on invasion of CaSki cells as determined by a commercially available kit (BD Biosciences) as described in materials and methods. In brief, 24 hours post-treatment of Br-ORM, invaded cells were fixed, stained and counted. […] Bar graph represent the quantification of invaded CaSki cells of control and Br-ORM treated groups (FIG. 14D(ii)). […]

[2] = system: EMT markers and MMPs in CaSki cells; test: Western blot for EMT markers and MMPs, CaSki; settings: 24 hours
Protocol: In a further example, cell lysates and western blot analysis was conducted for EMT markers and MMPs. […] In this example, about 70% of confluent SiHa and CaSki were treated with ORM-Br ([…]) for 24 hours. Cell lysates were prepared, and western blot analysis were conducted for EMT markers and MMPs analysis. The effect of ORM-Br on protein levels of cell-cycle regulatory proteins (cyclin E1 and p27) in both CaSki and SiHa cell lines are shown.
The effect of Br-ORM on protein expression in cervical cancer cells were determined by Western blot analysis by using specific antibodies.
Epithelial mesenchymal transition (EMT) is the basic characteristic of cancer cells in which epithelial cells undergo morphologic and molecular changes that transform the cells to mesenchymal, highly metastatic (invasive and motile), and drug-resistant phenotypes. Thus, targeting EMT may reduce the invasive phenotypes of a cancer cell and have significant advantage to overcome drug resistance. It has been reported that β-catenin is involved in invasion and metastasis via inducing EMT in various tumor cells. The effect of Br-ORM treatment on various EMT markers in cervical cancer cells was evaluated. […] The effect of Br-ORM on expression of EMT markers in cervical cancer cells compared to untreated group by use of qPCR analysis was determined. […] Expression of E-cadherin in cervical cancer cells treated with Br-ORM (10 μM) for 18 hours was also determined by immunofluorescence and confocal microscopy. Images were captured under 60× magnification and representative images are presented (FIG. 14G).
FIG. 14. Br-ORM decreases migration, invasion and attenuates EMT in cervical cancer cells. Effect of Br-ORM on cell migration of cervical cancer cells as determined by agarose bead (FIG. 14A), scratch wound healing (FIG. 14B), and Boyden chamber assay (FIG. 14C). AB denotes agarose bead while MC denotes migratory cells. Arrows indicate the distance of cervical cancer (CaSki and SiHa) cells migration in control and Br-ORM treated groups (FIG. 14A(i)-(ii)). […] Closure of wound was determined and photographed using phase contrast microscopy. […] Bar graph represent the quantification of migrated CaSki cells of control and Br-ORM treated groups (FIG. 14C(ii)). […] Effect of Br-ORM treatment on invasion of CaSki cells as determined by a commercially available kit (BD Biosciences) as described in materials and methods. In brief, 24 hours post-treatment of Br-ORM, invaded cells were fixed, stained and counted. […] Bar graph represent the quantification of invaded CaSki cells of control and Br-ORM treated groups (FIG. 14D(ii)). […] Effect of Br-ORM on E-cadherin expression in cervical cancer cells as determined by confocal microscopy in control and Br-ORM treated cells after 18 hours.

[3] = system: SiHa cells; test: Cell migration (agarose bead, scratch wound), SiHa; settings: 0 and 48 hours
Protocol: as §1, §2, §3

**Q.** What does the source list for `COc1ccc2c(c1)OC(C)(C)C(c1ccc(Br)cc1)C2c1ccc(OCCN2CCCC2)cc1` (centres unmarked) [ORM-Br]?
**A.** cell migration / motility [1]: inhibits the migration; cell migration / motility ([1]; listed as Br-ORM): dose dependent inhibition of migration abilities; EMT associated markers (N-cadherin, vimentin and snail) expression [2]: inhibits the EMT associated markers; expression of E-cadherin [2]: induced the expression of E-cadherin; expression of MMP2 and MMP9 [2]: inhibited the expression of MMP2 and MMP9; EMT associated markers (N-cadherin, vimentin and snail) expression ([2]; listed as Br-ORM): marked inhibition; cell migration / motility [3]: inhibits the migration; cell migration / motility ([3]; listed as Br-ORM): dose dependent inhibition of migration abilities
